According to patent publication US20200024278A1, “COMPOSITION COMPRISING ANTIBIOTIC COMPOUND AND AN HETEROCYCLIC COMPOUND AND THEIR USE IN PREVENTING OR TREATING BACTERIAL INFECTIONS” (MUTABILIS, priority 2016, published 2020):

Experiments:
Assay in all cases: MIC, broth microdilution (CLSI), substance alone or ATB combined with compound at 4 or 8 μg/mL
ECL P99 = type: cell-based, E. cloacae; details: ECL P99; for MIC ATB combined with Example: Example @8 μg/ml
Outline: (§1)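 Broth microdilution; ca-MHB; 5·10^5 CFU/mL; 35° C, 16-20 h; compound alone or fixed 4/8 μg/mL with antibiotic series; endpoint = no visible growth.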

KPN UFR42 = type: cell-based, K. pneumoniae; details: KPN UFR42; for MIC ATB combined with Example: Example @8 μg/ml; for MIC ATB combined with Example compound: compound @8 μg/ml
Outline: as §1

KPN BAA-1898 = type: cell-based, K. pneumoniae; details: KPN BAA-1898; for MIC ATB combined with Example: Example @8 μg/ml
Outline: as §1

KPN 6299 = type: cell-based, K. pneumoniae; details: for MIC ATB combined with Example: Example @8 μg/ml
Outline: as §1

SAU 29213 = type: cell-based, S. aureus; details: for MIC ATB combined with Example / MIC ATB combined with Example compound: SAU 29213; for MIC ATB combined with Example: Example @8 μg/ml; for MIC ATB combined with Example compound: compound @8 μg/ml
Outline: as §1

SPN 49619 = type: cell-based, S. pneumoniae; details: SPN 49619; for MIC ATB combined with Example: Example @8 μg/ml; for MIC ATB combined with Example compound: compound @8 μg/ml
Outline: as §1

ABA UFR160 = type: cell-based, A. baumannii; details: Acinetobacter baumannii, substance alone, read-out: MIC
Outline: as §1

ABA 19606 = type: cell-based, A. baumannii; details: Acinetobacter baumannii, substance alone, read-out: MIC
Outline: as §1

PAE UFR90 = type: cell-based, P. aeruginosa; details: PAE UFR90; for MIC ATB combined with Example: Example @8 μg/ml; for MIC ATB combined with Example compound: compound @8 μg/ml
Outline: as §1

PAE 105250 = type: cell-based, P. aeruginosa; details: PAE 105250; for MIC ATB combined with Example: Example @8 μg/ml; for MIC ATB combined with Example compound: compound @8 μg/ml
Outline: as §1

PAE UFR48 = type: cell-based, P. aeruginosa; details: PAE UFR48; for MIC ATB combined with Example: Example @8 μg/ml; for MIC ATB combined with Example compound: compound @8 μg/ml
Outline: as §1

ECO 190317 = type: cell-based, E. coli; details: ECO 190317; for MIC ATB combined with Example: Example @8 μg/ml
Outline: as §1

ECO UFR39 = type: cell-based, E. coli; details: ECO UFR39; for MIC ATB combined with Example: Example @8 μg/ml; for MIC ATB combined with Example compound: compound @8 μg/ml
Outline: as §1

[1] = Pseudomonas aeruginosa, substance alone, read-out: MIC
[2] = Escherichia coli, substance alone, read-out: MIC

MIC ATB combined with Example (ECL P99; ATB ATM): <0.031 µg/mL
MIC ATB combined with Example (ECL P99; ATB FEP): <0.031 µg/mL
MIC ATB combined with Example (ECL P99; ATB FOS): <0.125 µg/mL
MIC ATB combined with Example (ECL P99; ATB MEM): <0.031 µg/mL
MIC ATB combined with Example (ECL P99; ATB PIP): <0.031 µg/mL
MIC (ECL P99; Enterobacter cloacae, substance alone, read-out: MIC): 4 µg/mL
MIC ATB combined with Example compound (ECL P99; MIC of CIP, compound @8 μg/ml): <0.031 µg/mL
MIC ATB combined with Example (KPN UFR42; ATB ATM): <0.031 µg/mL
MIC ATB combined with Example (KPN UFR42; ATB FEP): <0.031 µg/mL
MIC ATB combined with Example (KPN UFR42; ATB FOS): <0.125 µg/mL
MIC ATB combined with Example (KPN UFR42; ATB MEM): 0.5 µg/mL
MIC ATB combined with Example (KPN UFR42; ATB PIP): >32 µg/mL
MIC (KPN UFR42; Klebsiella pneumoniae, substance alone, read-out: MIC): 8 µg/mL
MIC ATB combined with Example compound (KPN UFR42; MIC of CIP): 32 µg/mL
MIC ATB combined with Example compound (KPN UFR42; MIC of CPO): <0.031 µg/mL
MIC ATB combined with Example (KPN BAA-1898; ATB ATM): <0.031 µg/mL
MIC ATB combined with Example (KPN BAA-1898; ATB FEP): <0.031 µg/mL
MIC ATB combined with Example (KPN BAA-1898; ATB FOS): <=0.125 μg/mL
MIC ATB combined with Example (KPN BAA-1898; ATB MEM): <=0.031 μg/mL
MIC ATB combined with Example (KPN BAA-1898; ATB PIP): <0.031 µg/mL
MIC (KPN BAA-1898; Klebsiella pneumoniae, BAA1898, substance alone, read-out: MIC): 8 µg/mL
MIC ATB combined with Example compound (KPN BAA-1898; MIC of CIP, compound @8 μg/ml): <0.031 µg/mL
MIC ATB combined with Example (KPN 6299; ATB ATM): <0.031 µg/mL
MIC ATB combined with Example (KPN 6299; ATB FEP): <0.031 µg/mL
MIC ATB combined with Example (KPN 6299; ATB FOS): <0.125 µg/mL
MIC ATB combined with Example (KPN 6299; ATB MEM): <0.031 µg/mL
MIC ATB combined with Example (KPN 6299; ATB PIP): <=0.031 μg/mL
MIC ATB combined with Example compound (KPN 6299; MIC of CIP, compound @8 μg/ml): <=0.031 μg/mL
MIC ATB combined with Example (SAU 29213; ATB ATM): >32 µg/mL
MIC ATB combined with Example (SAU 29213; ATB FEP): 0.5 µg/mL
MIC ATB combined with Example (SAU 29213; ATB FOS): <=0.125 μg/mL
MIC ATB combined with Example (SAU 29213; ATB MEM): <=0.031 μg/mL
MIC ATB combined with Example (SAU 29213; ATB PIP): 0.125 µg/mL
MIC ATB combined with Example compound (SAU 29213; MIC of CIP): <=0.031 μg/mL
MIC ATB combined with Example compound (SAU 29213; MIC of CLI): <0.0010 µg/mL
MIC ATB combined with Example compound (SAU 29213; MIC of CPO): <0.031 µg/mL
MIC ATB combined with Example compound (SAU 29213; MIC of DAP): <=0.0020 μg/mL
MIC ATB combined with Example compound (SAU 29213; MIC of ERY): <0.0020 µg/mL
MIC ATB combined with Example compound (SAU 29213; MIC of LZD): <0.0078 µg/mL
MIC ATB combined with Example compound (SAU 29213; MIC of RIF): 0.002 µg/mL
MIC ATB combined with Example compound (SAU 29213; MIC of SYN): 0.125 µg/mL
MIC ATB combined with Example compound (SAU 29213; MIC of VAN): <0.0039 µg/mL
MIC (SAU 29213; Staphylococcus aureus, substance alone, SAU 29213 (MSSA 29213), read-out: MIC): 8 µg/mL
MIC ATB combined with Example (SPN 49619; ATB ATM): >32 µg/mL
MIC ATB combined with Example (SPN 49619; ATB FEP): <=0.031 μg/mL
MIC ATB combined with Example (SPN 49619; ATB FOS): 8 µg/mL
MIC ATB combined with Example (SPN 49619; ATB MEM): <=0.031 μg/mL
MIC ATB combined with Example (SPN 49619; ATB PIP): 0.5 µg/mL
MIC ATB combined with Example compound (SPN 49619; MIC of CIP): <0.031 µg/mL
MIC ATB combined with Example compound (SPN 49619; MIC of CLI): 0.0078 µg/mL
MIC ATB combined with Example compound (SPN 49619; MIC of CPO): <=0.031 μg/mL
MIC ATB combined with Example compound (SPN 49619; MIC of DAP): 0.125 µg/mL
MIC ATB combined with Example compound (SPN 49619; MIC of ERY): 0.0078 µg/mL
MIC ATB combined with Example compound (SPN 49619; MIC of LZD): 0.25 µg/mL
MIC ATB combined with Example compound (SPN 49619; MIC of RIF): 0.002 µg/mL
MIC ATB combined with Example compound (SPN 49619; MIC of SYN): 0.25 µg/mL
MIC ATB combined with Example compound (SPN 49619; MIC of VAN): 0.031 µg/mL
MIC (SPN 49619; Streptococcus pneumoniae, substance alone, read-out: MIC): 16 µg/mL
MIC (ABA UFR160): > 32 µg/mL
MIC (ABA 19606): > 32 µg/mL
MIC ATB combined with Example (PAE UFR90; ATB ATM): 4 µg/mL
MIC ATB combined with Example (PAE UFR90; ATB FEP): 2 µg/mL
MIC ATB combined with Example (PAE UFR90; ATB FOS): 8 µg/mL
MIC ATB combined with Example (PAE UFR90; ATB MEM): 1 µg/mL
MIC ATB combined with Example (PAE UFR90; ATB PIP): 16 µg/mL
MIC ATB combined with Example compound (PAE UFR90; MIC of CIP): 1 µg/mL
MIC ATB combined with Example compound (PAE UFR90; MIC of CPO): 2 µg/mL
MIC (PAE UFR90; [1]): > 32 µg/mL
MIC ATB combined with Example (PAE 105250; ATB ATM): 16 µg/mL
MIC ATB combined with Example (PAE 105250; ATB FEP): 8 µg/mL
MIC ATB combined with Example (PAE 105250; ATB FOS): >128 µg/mL
MIC ATB combined with Example (PAE 105250; ATB MEM): 2 µg/mL
MIC ATB combined with Example (PAE 105250; ATB PIP): 32 µg/mL
MIC ATB combined with Example compound (PAE 105250; MIC of CIP): 0.125 µg/mL
MIC ATB combined with Example compound (PAE 105250; MIC of CPO): 16 µg/mL
MIC (PAE 105250; [1]): > 32 µg/mL
MIC ATB combined with Example (PAE UFR48; ATB ATM): 8 µg/mL
MIC ATB combined with Example (PAE UFR48; ATB FEP): 32 µg/mL
MIC ATB combined with Example (PAE UFR48; ATB FOS): 32 µg/mL
MIC ATB combined with Example (PAE UFR48; ATB MEM): 0.25 µg/mL
MIC ATB combined with Example (PAE UFR48; ATB PIP): 16 µg/mL
MIC ATB combined with Example compound (PAE UFR48; MIC of CIP): 4 µg/mL
MIC ATB combined with Example compound (PAE UFR48; MIC of CPO): >32 µg/mL
MIC (PAE UFR48; [1]): > 32 µg/mL
MIC ATB combined with Example (ECO 190317; ATB ATM): <0.031 µg/mL
MIC ATB combined with Example (ECO 190317; ATB FEP): <0.031 µg/mL
MIC ATB combined with Example (ECO 190317; ATB FOS): <0.125 µg/mL
MIC ATB combined with Example (ECO 190317; ATB MEM): <0.031 µg/mL
MIC ATB combined with Example (ECO 190317; ATB PIP): <0.031 µg/mL
MIC (ECO 190317; [2]): 1 µg/mL
MIC ATB combined with Example compound (ECO 190317; MIC of CIP, compound @8 μg/ml): <0.031 µg/mL
MIC ATB combined with Example (ECO UFR39; ATB ATM): <0.031 µg/mL
MIC ATB combined with Example (ECO UFR39; ATB FEP): <0.031 µg/mL
MIC ATB combined with Example (ECO UFR39; ATB FOS): <0.125 µg/mL
MIC ATB combined with Example (ECO UFR39; ATB MEM): <0.031 µg/mL
MIC ATB combined with Example (ECO UFR39; ATB PIP): <0.031 µg/mL
MIC (ECO UFR39; [2]): 4 µg/mL
MIC ATB combined with Example compound (ECO UFR39; MIC of CIP): <0.031 µg/mL
MIC ATB combined with Example compound (ECO UFR39; MIC of CPO): <0.031 µg/mL
Structure (SMILES): O=C1N2CC(n3cccn3)=CC(C2)N1OS(=O)(=O)[O-].[Na+] (stereo not drawn) [Example 11, sodium (7-oxo-3-pyrazol-1-yl-1,6-diazabicyclo[3.2.1]oct-3-en-6-yl) sulfate]
